pIC50: −log10 of the molar value. “And” between values parts separate entries of the source, which are not always exact repeats. Identical values can stand only once.
Assays:
[1] = biological target: T1, human wildtype CFTR (Homo sapiens, UniProt P13569); assay: Short-circuit current analysis of CFTR inhibition in CFTR-expressing FRT cells; format: cell-based; parameters: expressed in transfected cells; host or cells: Fischer rat thyroid (FRT) epithelial cells on Snapwell inserts; conditions: for IC50: Determined by short-circuit current assay, read-out: IC50 (μM)^B; for inhibition of CFTR chloride conductance (in words) / pIC50: short-circuit current; for inhibition of short-circuit current: 100 nM; for pIC50: FRT cells expressing human CFTR, forskolin-stimulated, read-out: IC50 for inhibition of CFTR chloride conductance
Experimental: Short-Circuit Current—Snapwell inserts containing CFTR-expressing FRT cells were mounted in an Ussing chamber. The hemichambers contained 5 mL of buffer containing 75 mM NaCl and 75 mM Na gluconate (apical) and 150 mM NaCl (basolateral) (pH 7.3), and the basolateral membrane was permeabilized with 250 μg/mL amphotericin B, as described (see, e.g., Sonawane et al., FASEB J 2006, supra). Short-circuit current was recorded continuously using a DVC-1000 voltage clamp (World Precision Instruments) using Ag/AgCl electrodes and 3 M KCl agar bridges.
Current was measured in CFTR-expressing FRT cells in which the basolateral membrane was permeabilized and in the presence of a transepithelial chloride concentration gradient, so that current is a quantitative linear measure of CFTR function. CFTR was activated by forskolin, followed by serial additions of increasing concentrations of test compounds.
CFTR inhibition potency was measured by short-circuit current analysis in FRT epithelial cells expressing human CFTR in presence of a transepithelial chloride gradient and in which the basolateral membrane was permeabilized with amphotericin B. Under these conditions short-circuit current is proportional to CFTR chloride conductance.

[2] = In vitro metabolism in hepatic microsomes (LC/MS); format: in vitro ADME, rat; conditions: in the presence of NADPH
Experimental: (§1) In Vitro Metabolism in Hepatic Microsomes—A compound of structure (I) was incubated for specified times at 37° C. with rat liver microsomes (e.g., 1 mg protein/ml; Sigma-Aldrich, St. Louis, Mo.) in potassium phosphate buffer (100 mM) containing NADPH (0 or 1 mM). The mixture was then chilled on ice, and 0.5 ml of ice-cold ethyl acetate was added. Samples were centrifuged for 15 min at 3,000 rpm, and the supernatant was evaporated to dryness under nitrogen. The residue was dissolved in 150 μl mobile phase (acetonitrile:water 3:1, containing 0.1% formic acid) for LC/MS analysis. Reverse-phase HPLC separations were carried out using a Waters C18 column (2.1×100 mm, […]) equipped with a solvent delivery system (Waters model 2690, Milford, Mass.). The solvent system consisted of a linear gradient from 5 to 95% acetonitrile run over 16 min (0.2 mL/min flow rate). Mass spectra were acquired on an Alliance HT 2790+ZQ mass spectrometer using negative ion detection.
as §1, with “Liquid Chromatography/Mass Spectrometry—Compounds (each at 5 μM) were” for “In Vitro Metabolism in Hepatic Microsomes—A compound of structure (I) was”, “(1” for “(e.g., 1”, “150” for “150 μl”, “detection, scanning from 150 to 1500 Da. The electrospray ion source parameters were as follows: capillary voltage 3.5 kV (positive ion mode), cone voltage 37 V, source temperature 120° C., desolvation temperature 250° C., cone gas flow 25 L/h, and dessolvation gas flow 350 L/h.” for “detection.”
PPQ-102 is a small-molecule inhibitor of CFTR chloride conductance with efficacy in preventing and reversing cyst formation in an organ culture model of PKD (see, e.g., Tradtrantip et al., J. Med. Chem. 2009, supra; Int'l Patent Appl. Publication No. WO 2011/019737). Preliminary analysis of the metabolic stability and aqueous solubility of PPQ-102, indicated poorer metabolic stability and lower water solubility (˜2 μM in albumin-free saline) than desired for optimal drugability. In vitro metabolic stability was determined by compound incubation with hepatic microsomes at 37° C. for specified times in the absence vs. presence of NADPH, following by LC/MS analysis. Shown in FIG. 6A is PPQ-102 disappearance in hepatic microsomes in the presence of NADPH, with ˜60% disappearance in 30 min.

[3] = biological target: T1, human wildtype CFTR; assay: Fluorescence plate reader assay of CFTR inhibition (iodide influx); format: cell-based; parameters: expressed in transfected cells; host or cells: Fischer rat thyroid (FRT) cells; conditions: Determined by micro-plate reader assay; FRT cells co-expressing human wild type CFTR and YFP-H148Q
Experimental: Cell Culture and Plate Reader Assay of CFTR Inhibition—Fischer rat thyroid (FRT) cells co-expressing human wild type CFTR and the halide indicator YFP-H148Q were cultured in 96-well black-walled microplates (Corning Costar) at a density of 20,000 cells per well in Coon's modified F12 medium containing 10% fetal bovine serum, 2 mM L-glutamine, 100 U/mL penicillin and 100 μg/mL streptomycin. CFTR chloride conductance was assayed at 48 h after plating on a FluoStar fluorescence plate reader (BMG Lab Technologies) as described (see, e.g., Ma et al., J Clin Invest. 2002, supra). Each well was washed 3 times with PBS, leaving 60 μL PBS. Test compounds were added and incubated with the cells for 45 min. Then, 5 μL of a CFTR-activating cocktail (10 μM forskolin, 100 μM IBMX, 20 μM apigenin in PBS) was added. After 15 min, each well was assayed for iodide influx by recording fluorescence continuously (200 ms per point) for 2 s (baseline) and then for 10 s after rapid addition of 160 μL of isosmolar PBS in which 137 mM chloride was replaced by iodide. The initial rate of iodide influx was computed from fluorescence data by non-linear regression.
Initial testing of the compounds for the capability to inhibit CFTR was performed using a plate-reader assay in which iodide influx was measured in FRT cells co-expressing human wild type CFTR and the iodide-sensing yellow fluorescent protein YFP-H148Q/1152L. […] Table B below provides IC50 values for PPQ and BPO compounds.
The relative IC50 values obtained from the plate reader assay are useful for comparisons. Absolute IC50 values obtained from the plate-reader assay are approximate, generally underestimating compound potency because of assay non-linearities, pH-dependent YFP fluorescence, the use of iodide instead of chloride, and compound dilution at the start of the assay (see, e.g., Galietta et al., Am. J. Physiol. Cell Physiol. 281:C1734-42 (2001)).

T1 sequence (P13569 whole entry): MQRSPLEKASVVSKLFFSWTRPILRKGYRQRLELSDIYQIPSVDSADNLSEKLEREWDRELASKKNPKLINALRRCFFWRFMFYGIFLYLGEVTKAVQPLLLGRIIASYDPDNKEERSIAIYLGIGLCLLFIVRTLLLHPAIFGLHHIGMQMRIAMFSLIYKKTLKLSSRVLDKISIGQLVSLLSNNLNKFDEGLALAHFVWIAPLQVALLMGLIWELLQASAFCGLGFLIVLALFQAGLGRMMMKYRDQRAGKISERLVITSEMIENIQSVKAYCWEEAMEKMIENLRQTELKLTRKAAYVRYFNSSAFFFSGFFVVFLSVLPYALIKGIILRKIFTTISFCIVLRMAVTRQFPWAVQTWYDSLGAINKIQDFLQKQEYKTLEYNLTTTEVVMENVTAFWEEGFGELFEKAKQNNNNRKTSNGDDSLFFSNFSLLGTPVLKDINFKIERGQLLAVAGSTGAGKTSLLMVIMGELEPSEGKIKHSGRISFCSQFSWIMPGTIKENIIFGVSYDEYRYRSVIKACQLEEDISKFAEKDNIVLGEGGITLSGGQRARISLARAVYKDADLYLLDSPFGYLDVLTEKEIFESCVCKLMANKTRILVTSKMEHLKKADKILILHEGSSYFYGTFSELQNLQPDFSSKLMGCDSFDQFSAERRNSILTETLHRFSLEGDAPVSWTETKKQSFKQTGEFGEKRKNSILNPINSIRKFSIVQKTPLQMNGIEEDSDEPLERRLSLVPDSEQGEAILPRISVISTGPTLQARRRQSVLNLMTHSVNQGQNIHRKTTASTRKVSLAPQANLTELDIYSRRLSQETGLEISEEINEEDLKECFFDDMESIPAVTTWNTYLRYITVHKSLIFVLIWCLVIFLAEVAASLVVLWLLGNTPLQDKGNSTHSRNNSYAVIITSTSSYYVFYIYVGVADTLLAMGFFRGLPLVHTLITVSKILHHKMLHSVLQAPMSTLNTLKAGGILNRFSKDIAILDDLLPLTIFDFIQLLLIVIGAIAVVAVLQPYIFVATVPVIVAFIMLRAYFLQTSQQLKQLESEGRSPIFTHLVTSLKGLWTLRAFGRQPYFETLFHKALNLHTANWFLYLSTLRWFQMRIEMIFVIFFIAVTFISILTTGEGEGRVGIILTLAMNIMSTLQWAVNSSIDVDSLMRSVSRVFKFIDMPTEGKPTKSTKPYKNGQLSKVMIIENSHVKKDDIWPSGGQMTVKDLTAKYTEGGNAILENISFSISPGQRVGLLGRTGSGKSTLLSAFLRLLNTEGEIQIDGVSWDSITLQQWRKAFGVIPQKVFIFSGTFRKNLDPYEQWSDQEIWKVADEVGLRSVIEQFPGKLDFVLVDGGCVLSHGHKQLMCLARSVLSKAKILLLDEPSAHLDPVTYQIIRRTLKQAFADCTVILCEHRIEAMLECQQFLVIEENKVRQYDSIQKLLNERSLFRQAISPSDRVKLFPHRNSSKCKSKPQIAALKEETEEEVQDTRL

Structure (SMILES)	IC50 [1]	metabolic stability in hepatic microsomes (in words) [2]	pIC50 [3]	inhibition of CFTR chloride conductance (in words) [1]	inhibition of short-circuit current [1]	pIC50 [1]
Cn1c(=O)c2c(-c3ccccc3)n3c(c2n(C)c1=O)C(c1ccc(Br)o1)Nc1ccccc1-3 (stereo not shown) [PPQ-10, 6-(5-Bromofuran-2-yl)-7,9-dimethyl-11-phenyl-5,6-dihydropyrimido[4′,5′-3,4]pyrrolo[1,2-a]quinoxaline-8,10-(7H,9H)-dione]	0.05 µM	substantially more stable than PPQ-102	7.05	–	–	–
Cn1c(=O)c2c(-c3ccccc3)n3c(c2n(C)c1=O)C(c1ccc(Br)o1)Oc1ccccc1-3 (stereo not shown) [BPO-16, 6-(5-Bromofuran-2-yl)-7,9-dimethyl-11-phenyl-6H-benzo[b]pyrimido[4′,5′-3,4]pyrrolo[1,2-d]oxazine-8,10-(7H,9H)-dione]	0.09 µM	better stability than PPQ-102	6.70	–	–	–
Cn1c(=O)c2c(-c3ccccc3)n3c(c2n(C)c1=O)C(c1ccc(I)o1)Nc1ccccc1-3 (stereo not shown) [PPQ-11, 7,9-Dimethyl-6-(5-iodofuran-2-yl)-11-phenyl-5,6-dihydropyrimido[4′,5′-3,4]pyrrolo[1,2-a]quinoxaline-8,10-(7H,9H)-dione]	0.1 µM	–	6.77	–	–	–
Cn1c(=O)c2c(-c3ccccc3)n3c(c2n(C)c1=O)C(c1ccc(Br)o1)Oc1ccc([N+](=O)[O-])cc1-3 (stereo not shown) [BPO-21, 6-(5-bromofuran-2-yl)-7,9-Dimethyl-2-nitro-11-phenyl-6H-benzo[b]pyrimido[4′,5′-3,4]pyrrolo[1,2-d]oxazine-8,10-(7H,9H)-dione]	0.025 µM	excellent metabolic stability	6.92	substantially greater CFTR inhibition potency	–	–
Cn1c(=O)c2c(-c3ccccc3)n3c(c2n(C)c1=O)[C@@H](c1ccc(Br)o1)Oc1ccc(C(=O)O)cc1-3 (single isomer, unassigned) [(S)-BPO-27, 6S-(5-Bromofuran-2-yl)-7,9-dimethyl-8,10-dioxo-11-phenyl-7,8,9,10-tetrahydro-6H-benzo[b]pyrimido [4′,5′:3,4]pyrrolo [1,2-d][1,4]oxazine-2-carboxylic acid]	–	little metabolism	–	inactive	no significant inhibition	~8.40
Cn1c(=O)c2c(-c3ccccc3)n3c(c2n(C)c1=O)[C@H](c1ccc(Br)o1)Oc1ccc(C(=O)O)cc1-3 (single isomer, unassigned) [(R)-BPO-27, 6R-(5-Bromofuran-2-yl)-7,9-dimethyl-8,10-dioxo-11-phenyl-7,8,9,10-tetrahydro-6H-benzo[b]pyrimido [4′,5′:3,4]pyrrolo [1,2-d][1,4]oxazine-2-carboxylic acid]	–	little metabolism	–	–	completed inhibited current	8.40 and ~8.40
